Laboratory results taken from ChEMBL document CHEMBL1126592, “Bicyclic compounds as ring-constrained inhibitors of protein-tyrosine kinase p56lck” (J Med Chem, 1993).

target: Tyrosine-protein kinase Lck (Homo sapiens, UniProt P06239); assay: Ability to inhibit autophosphorylation of immunopurified p56Ick
Sequence (P06239 whole entry): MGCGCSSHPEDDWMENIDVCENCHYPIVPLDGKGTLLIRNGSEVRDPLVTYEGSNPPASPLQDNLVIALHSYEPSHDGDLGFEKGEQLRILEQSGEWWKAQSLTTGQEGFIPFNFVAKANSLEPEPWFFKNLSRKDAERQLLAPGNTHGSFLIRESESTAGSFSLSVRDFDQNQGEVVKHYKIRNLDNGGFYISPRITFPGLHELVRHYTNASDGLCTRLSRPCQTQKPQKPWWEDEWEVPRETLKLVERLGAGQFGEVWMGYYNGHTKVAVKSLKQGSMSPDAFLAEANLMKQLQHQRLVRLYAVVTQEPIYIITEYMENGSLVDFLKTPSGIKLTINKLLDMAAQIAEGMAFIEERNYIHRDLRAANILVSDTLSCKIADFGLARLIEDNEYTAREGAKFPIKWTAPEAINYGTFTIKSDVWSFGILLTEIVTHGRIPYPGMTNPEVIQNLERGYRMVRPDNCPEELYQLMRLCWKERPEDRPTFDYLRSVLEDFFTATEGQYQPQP

Structure (SMILES) | IC50 [µM]
N=c1oc2c(O)c(O)ccc2cc1C(N)=O | 750
COC(=O)c1ccc2c(O)c(O)ccc2c1 | 25
N=c1oc2c(O)cccc2cc1C(N)=O | 100
NC(=O)c1ccc2cc(O)c(O)cc2c1 | 26
N#C/C(=C\c1ccc(O)c(O)c1)C(N)=O | 22
N=c1oc2cc(O)ccc2cc1C(N)=O | > 2000
N=c1oc2ccccc2cc1C(N)=O | 1500
N#C/C(=C\c1cc(O)cc(O)c1)C(N)=O | 500
N=c1oc2cc(O)c(O)cc2cc1C(N)=O | > 2000
NC(=O)c1cnc2cc(O)c(O)cc2c1 | 610
COC(=O)c1cc2ccc(O)c(O)c2cn1 | 0.2
N#C/C(=C\c1ccc(O)cc1)C(N)=O | 1000
N#C/C(=C\c1cccc(O)c1)C(N)=O | 1500
N#C/C(=C\c1cc(O)c(O)c(O)c1)C(N)=O | 2000
N=c1oc2ccc(O)cc2cc1C(N)=O | 100
